Measured values taken from ChEMBL document CHEMBL5291721, “A preclinical secondary pharmacology resource illuminates target-adverse drug reaction associations of marketed drugs” (Nat Commun, 2023).

Assays:
[1] = molecular target: Mu-type opioid receptor (Homo sapiens, UniProt P35372); test: biochemical; type: functional
[2] = molecular target: T1, Alpha-2C adrenergic receptor (Homo sapiens, UniProt P18825); type: functional
T1 sequence (P18825 whole entry): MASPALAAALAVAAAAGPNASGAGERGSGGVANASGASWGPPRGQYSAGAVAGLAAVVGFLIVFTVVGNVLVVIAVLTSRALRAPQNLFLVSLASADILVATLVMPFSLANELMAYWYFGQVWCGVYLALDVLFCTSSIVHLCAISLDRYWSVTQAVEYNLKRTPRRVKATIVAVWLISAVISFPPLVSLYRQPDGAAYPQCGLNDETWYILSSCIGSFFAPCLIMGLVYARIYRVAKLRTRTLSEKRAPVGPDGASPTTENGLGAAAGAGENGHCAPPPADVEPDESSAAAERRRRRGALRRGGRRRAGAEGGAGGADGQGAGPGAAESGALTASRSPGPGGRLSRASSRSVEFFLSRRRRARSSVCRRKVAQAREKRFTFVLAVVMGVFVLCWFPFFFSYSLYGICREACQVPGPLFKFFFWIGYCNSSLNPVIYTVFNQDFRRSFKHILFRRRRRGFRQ

[3] = molecular target: T2, 5-hydroxytryptamine receptor 1A (Homo sapiens, UniProt P08908); type: functional, cell-based
T2 sequence (P08908 whole entry): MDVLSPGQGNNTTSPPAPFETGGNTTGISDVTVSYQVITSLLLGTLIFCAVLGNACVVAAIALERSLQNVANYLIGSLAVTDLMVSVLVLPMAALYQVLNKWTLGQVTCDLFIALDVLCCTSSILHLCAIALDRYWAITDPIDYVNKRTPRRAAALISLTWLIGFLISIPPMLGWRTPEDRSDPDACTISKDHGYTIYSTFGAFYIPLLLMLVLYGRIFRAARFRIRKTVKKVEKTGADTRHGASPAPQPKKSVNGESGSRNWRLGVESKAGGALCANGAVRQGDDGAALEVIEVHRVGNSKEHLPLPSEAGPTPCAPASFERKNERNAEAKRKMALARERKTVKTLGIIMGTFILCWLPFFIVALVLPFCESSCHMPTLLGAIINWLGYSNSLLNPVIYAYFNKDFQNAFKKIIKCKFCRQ

[4] = molecular target: T3, D(3) dopamine receptor (Homo sapiens, UniProt P35462)
[5] = molecular target: T4, Alpha-2A adrenergic receptor (Homo sapiens, UniProt P08913); type: functional, cell-based
T4 sequence (P08913 whole entry): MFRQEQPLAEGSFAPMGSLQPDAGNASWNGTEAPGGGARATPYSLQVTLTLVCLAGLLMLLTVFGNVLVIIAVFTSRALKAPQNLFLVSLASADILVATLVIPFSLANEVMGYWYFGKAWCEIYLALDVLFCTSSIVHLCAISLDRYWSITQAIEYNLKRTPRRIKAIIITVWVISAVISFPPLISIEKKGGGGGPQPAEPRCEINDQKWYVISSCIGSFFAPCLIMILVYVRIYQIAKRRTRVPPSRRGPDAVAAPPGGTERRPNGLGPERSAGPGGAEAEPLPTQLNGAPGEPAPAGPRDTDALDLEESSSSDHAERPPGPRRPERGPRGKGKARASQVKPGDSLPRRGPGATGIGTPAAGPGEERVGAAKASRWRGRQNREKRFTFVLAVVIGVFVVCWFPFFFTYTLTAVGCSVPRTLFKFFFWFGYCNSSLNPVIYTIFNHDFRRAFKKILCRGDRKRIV

[6] = molecular target: T5, Estrogen receptor (Homo sapiens, UniProt P03372)
T5 sequence (P03372 whole entry): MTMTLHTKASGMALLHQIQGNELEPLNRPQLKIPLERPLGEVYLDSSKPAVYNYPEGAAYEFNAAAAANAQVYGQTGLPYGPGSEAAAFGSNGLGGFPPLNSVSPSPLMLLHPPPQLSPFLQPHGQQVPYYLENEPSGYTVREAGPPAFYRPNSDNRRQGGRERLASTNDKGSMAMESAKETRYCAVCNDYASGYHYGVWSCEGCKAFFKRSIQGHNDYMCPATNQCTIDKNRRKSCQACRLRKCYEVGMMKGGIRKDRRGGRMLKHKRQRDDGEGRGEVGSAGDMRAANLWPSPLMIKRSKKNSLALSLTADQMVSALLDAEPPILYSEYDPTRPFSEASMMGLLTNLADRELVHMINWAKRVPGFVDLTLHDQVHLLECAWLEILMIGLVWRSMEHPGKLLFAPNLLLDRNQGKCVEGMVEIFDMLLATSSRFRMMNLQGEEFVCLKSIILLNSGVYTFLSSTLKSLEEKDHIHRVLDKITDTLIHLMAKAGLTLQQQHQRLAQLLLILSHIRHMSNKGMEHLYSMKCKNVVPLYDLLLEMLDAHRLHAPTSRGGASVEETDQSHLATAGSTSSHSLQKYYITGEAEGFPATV

[7] = molecular target: T3, D(3) dopamine receptor; remark: listed apart in the source
[8] = molecular target: T6, Thromboxane A2 receptor (Homo sapiens, UniProt P21731); type: functional, cell-based
T6 sequence (P21731 whole entry): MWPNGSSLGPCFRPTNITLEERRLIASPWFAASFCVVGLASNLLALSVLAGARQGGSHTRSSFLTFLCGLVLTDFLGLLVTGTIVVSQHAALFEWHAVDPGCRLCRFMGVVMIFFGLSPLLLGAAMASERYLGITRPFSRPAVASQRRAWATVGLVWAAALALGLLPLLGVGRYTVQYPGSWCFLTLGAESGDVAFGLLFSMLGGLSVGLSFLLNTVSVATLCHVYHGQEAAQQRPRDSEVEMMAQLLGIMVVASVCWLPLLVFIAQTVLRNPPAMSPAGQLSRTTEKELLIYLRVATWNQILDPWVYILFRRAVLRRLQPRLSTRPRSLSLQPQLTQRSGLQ

[9] = molecular target: T7, Adenosine receptor A3 (Homo sapiens, UniProt P0DMS8)
T7 sequence (P0DMS8 whole entry): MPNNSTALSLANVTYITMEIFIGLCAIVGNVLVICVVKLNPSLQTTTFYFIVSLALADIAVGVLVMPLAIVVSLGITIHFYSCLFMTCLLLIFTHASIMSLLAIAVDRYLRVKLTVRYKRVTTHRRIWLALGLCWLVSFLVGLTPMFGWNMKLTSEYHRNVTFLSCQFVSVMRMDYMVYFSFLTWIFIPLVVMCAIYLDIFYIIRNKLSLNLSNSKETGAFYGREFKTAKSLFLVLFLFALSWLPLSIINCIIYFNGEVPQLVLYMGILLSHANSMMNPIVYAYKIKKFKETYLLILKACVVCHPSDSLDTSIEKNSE

[10] = molecular target: D(1A) dopamine receptor (Homo sapiens, UniProt P21728)
[11] = molecular target: Sodium-dependent noradrenaline transporter (Homo sapiens, UniProt P23975)

Measured: AC50
Also: assay procedure not described here.

T3 sequence (P35462 whole entry): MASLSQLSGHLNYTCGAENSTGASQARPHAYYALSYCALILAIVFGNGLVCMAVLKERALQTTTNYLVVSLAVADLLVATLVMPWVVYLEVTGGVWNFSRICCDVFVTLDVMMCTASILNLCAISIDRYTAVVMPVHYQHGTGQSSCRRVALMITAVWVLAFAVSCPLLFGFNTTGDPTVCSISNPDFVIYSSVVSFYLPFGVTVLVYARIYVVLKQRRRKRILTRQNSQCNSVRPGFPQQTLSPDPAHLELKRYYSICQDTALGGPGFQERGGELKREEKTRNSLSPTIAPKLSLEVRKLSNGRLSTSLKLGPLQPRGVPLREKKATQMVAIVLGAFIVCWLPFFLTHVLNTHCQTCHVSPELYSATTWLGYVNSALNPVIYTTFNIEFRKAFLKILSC
Chain of Sodium-dependent noradrenaline transporter (P23975 whole entry): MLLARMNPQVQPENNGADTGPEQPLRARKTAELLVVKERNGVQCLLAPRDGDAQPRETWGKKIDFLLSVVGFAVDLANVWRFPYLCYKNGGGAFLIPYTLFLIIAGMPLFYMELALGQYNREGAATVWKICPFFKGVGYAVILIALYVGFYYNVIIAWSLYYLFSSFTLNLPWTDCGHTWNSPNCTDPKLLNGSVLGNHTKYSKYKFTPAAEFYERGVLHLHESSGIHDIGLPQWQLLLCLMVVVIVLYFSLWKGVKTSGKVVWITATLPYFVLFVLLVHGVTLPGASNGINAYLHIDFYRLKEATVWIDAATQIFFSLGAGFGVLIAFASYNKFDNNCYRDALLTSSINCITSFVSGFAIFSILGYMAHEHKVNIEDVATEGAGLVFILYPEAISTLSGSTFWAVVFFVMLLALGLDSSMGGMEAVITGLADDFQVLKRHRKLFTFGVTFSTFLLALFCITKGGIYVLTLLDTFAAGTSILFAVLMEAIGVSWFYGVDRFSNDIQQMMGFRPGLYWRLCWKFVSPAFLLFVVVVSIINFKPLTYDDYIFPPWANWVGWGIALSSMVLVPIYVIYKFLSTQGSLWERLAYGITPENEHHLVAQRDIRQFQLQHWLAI
Chain of Mu-type opioid receptor (P35372 whole entry): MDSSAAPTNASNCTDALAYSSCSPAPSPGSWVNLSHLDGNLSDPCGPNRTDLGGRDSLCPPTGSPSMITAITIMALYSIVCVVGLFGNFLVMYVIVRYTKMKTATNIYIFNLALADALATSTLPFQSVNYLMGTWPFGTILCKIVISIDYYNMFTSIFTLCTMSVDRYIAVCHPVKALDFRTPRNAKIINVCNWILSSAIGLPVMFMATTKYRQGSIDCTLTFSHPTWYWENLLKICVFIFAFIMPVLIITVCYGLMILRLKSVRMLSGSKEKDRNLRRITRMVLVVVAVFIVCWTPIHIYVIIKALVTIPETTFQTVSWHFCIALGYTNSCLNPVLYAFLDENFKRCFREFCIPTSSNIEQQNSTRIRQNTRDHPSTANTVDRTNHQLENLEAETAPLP
Chain of D(1A) dopamine receptor (P21728 whole entry): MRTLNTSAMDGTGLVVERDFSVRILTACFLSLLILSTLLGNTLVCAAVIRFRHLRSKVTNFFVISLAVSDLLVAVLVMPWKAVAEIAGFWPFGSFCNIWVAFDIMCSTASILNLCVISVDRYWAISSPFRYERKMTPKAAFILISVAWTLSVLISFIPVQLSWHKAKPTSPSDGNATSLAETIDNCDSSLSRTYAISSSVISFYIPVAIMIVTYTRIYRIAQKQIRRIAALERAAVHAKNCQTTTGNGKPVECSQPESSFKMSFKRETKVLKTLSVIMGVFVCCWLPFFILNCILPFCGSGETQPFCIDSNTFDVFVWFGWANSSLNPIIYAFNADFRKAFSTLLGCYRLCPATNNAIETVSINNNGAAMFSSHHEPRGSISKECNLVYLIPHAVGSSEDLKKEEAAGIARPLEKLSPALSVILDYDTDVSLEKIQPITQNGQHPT

CCN(CC)C(=O)C1(c2ccccc2)CC1CN (stereo unspecified)
> 30 µM: [1] | [2] | [3] | [4] | [5]

CN(C)C(=O)Oc1cccc([N+](C)(C)C)c1 [NEOSTIGMINE]
> 30 µM: [6] | [7] | [8] | [9] | [10] | [11]
